Measured values as given in US20230278972A1, “SUBSTITUTED HALOALKYL SULFONANILIDE HERBICIDES” (FMC Corporation, priority 2020, published 2023).

Tests used:
Assay type in all cases: in vivo
[1] = system: barnyardgrass (Echinochloa crus-galli); assay: Test A preemergence, barnyardgrass; details: Preemergence; for Plant response rating, Barnyardgrass: 0 to 100 scale (0 no effect, 100 complete control); for Barnyardgrass plant response rating: 500 g ai/ha, visual injury on 0 to 100 scale (0 no effect, 100 complete control), approximately 10 days
Outline: (§1)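 Postemergence ratings come from foliar sprays onto one- to two-leaf plants of 2 to 10 cm grown in loam/sand; preemergence ratings come from a directed spray onto the soil of newly seeded pots. Formulation was a surfactant-containing non-phytotoxic solvent blend.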

[2] = system: kochia (Bassia scoparia); assay: Test A preemergence, kochia; details: Preemergence; for Plant response rating, Kochia: 0 to 100 scale (0 no effect, 100 complete control); for Kochia plant response rating: 500 g ai/ha, visual injury on 0 to 100 scale (0 no effect, 100 complete control), approximately 10 days
Outline: as §1

[3] = system: ragweed (common ragweed, Ambrosia artemisiifolia); assay: Test A preemergence, ragweed; details: Preemergence; for Plant response rating, Ragweed: 0 to 100 scale (0 no effect, 100 complete control); for Ragweed plant response rating: 500 g ai/ha, visual injury on 0 to 100 scale (0 no effect, 100 complete control), approximately 10 days
Outline: as §1

[4] = system: Ryegrass, Italian (Italian ryegrass, Lolium multiflorum); assay: Test A preemergence, Ryegrass, Italian; details: Preemergence; for Plant response rating, Ryegrass, Italian: 0 to 100 scale (0 no effect, 100 complete control); for Ryegrass, Italian plant response rating: 500 g ai/ha, visual injury on 0 to 100 scale (0 no effect, 100 complete control), approximately 10 days
Outline: as §1

[5] = system: Foxtail, Giant (giant foxtail, Setaria faberi); assay: Test A preemergence, Foxtail, Giant; details: Preemergence; for Plant response rating, Foxtail, Giant: 0 to 100 scale (0 no effect, 100 complete control); for Foxtail, Giant plant response rating: 500 g ai/ha, visual injury on 0 to 100 scale (0 no effect, 100 complete control), approximately 10 days
Outline: as §1

[6] = system: pigweed (Amaranthus retroflexus); assay: Test A preemergence, pigweed; details: for Plant response rating, Pigweed: 0 to 100 scale (0 no effect, 100 complete control); for Pigweed plant response rating: 500 g ai/ha, visual injury on 0 to 100 scale (0 no effect, 100 complete control), approximately 10 days
Outline: as §1

[7] = system: barnyardgrass (Echinochloa crus-galli); assay: Test A postemergence, barnyardgrass; details: Postemergence, 0 to 100 scale (0 no effect, 100 complete control)
Outline: as §1

[8] = system: kochia (Bassia scoparia); assay: Test A postemergence, kochia; details: Postemergence, 0 to 100 scale (0 no effect, 100 complete control)
Outline: as §1

[9] = system: ragweed (common ragweed, Ambrosia artemisiifolia); assay: Test A postemergence, ragweed; details: Postemergence, 0 to 100 scale (0 no effect, 100 complete control)
Outline: as §1

[10] = system: Ryegrass, Italian (Italian ryegrass, Lolium multiflorum); assay: Test A postemergence, Ryegrass, Italian; details: Postemergence, 0 to 100 scale (0 no effect, 100 complete control)
Outline: as §1

[11] = system: Foxtail, Giant (giant foxtail, Setaria faberi); assay: Test A postemergence, Foxtail, Giant; details: Postemergence, 0 to 100 scale (0 no effect, 100 complete control)
Outline: as §1

[12] = system: pigweed (Amaranthus retroflexus); assay: Test A postemergence, pigweed; details: Postemergence, 0 to 100 scale (0 no effect, 100 complete control)
Outline: as §1

[13] = system: wheat (Triticum aestivum); assay: Test A postemergence, wheat; details: Postemergence, 0 to 100 scale (0 no effect, 100 complete control)
Outline: as §1

[14] = system: corn (Zea mays); assay: Test A postemergence, corn; details: Postemergence, 0 to 100 scale (0 no effect, 100 complete control)
Outline: as §1

[15] = system: blackgrass (Alopecurus myosuroides); assay: Test A postemergence, blackgrass; details: Postemergence, 0 to 100 scale (0 no effect, 100 complete control)
Outline: as §1

[16] = system: galium (catchweed bedstraw, Galium aparine); assay: Test A postemergence, galium; details: Postemergence, 0 to 100 scale (0 no effect, 100 complete control)
Outline: as §1

[17] = 125 g ai/ha, visual injury, approx. 10 days
[18] = 500 g ai/ha, visual injury approx. 10 days
[19] = 1000 g ai/ha, visual injury, approx. 10 days

Structure (SMILES): Cc1cc(Cl)c(C(=O)N(C)C)cc1N(S(=O)(=O)C(F)(F)F)S(=O)(=O)C(F)(F)F [Compound 256]
- Plant response rating, Barnyardgrass [1, 17]: 90
- Barnyardgrass plant response rating [1]: 100
- Plant response rating, Kochia [2, 17]: 60
- Kochia plant response rating [2]: 90
- Plant response rating, Ragweed [3, 17]: 60
- Ragweed plant response rating [3]: 80
- Plant response rating, Ryegrass, Italian [4, 17]: 80
- Ryegrass, Italian plant response rating [4]: 100
- Plant response rating, Foxtail, Giant [5, 17]: 30
- Foxtail, Giant plant response rating [5]: 90
- Plant response rating, Pigweed [6, 17]: 100
- Pigweed plant response rating [6]: 100
- Plant response rating, Barnyardgrass ([7]; 125 g ai/ha): 60
- Plant response rating, Barnyardgrass [7, 18]: 50
- Plant response rating, Kochia ([8]; 125 g ai/ha): 50
- Plant response rating, Kochia [8, 18]: 70
- Plant response rating, Ragweed ([9]; 125 g ai/ha): 40
- Plant response rating, Ragweed [9, 18]: 80
- Plant response rating, Ryegrass, Italian ([10]; 125 g ai/ha): 0
- Plant response rating, Ryegrass, Italian [10, 18]: 50
- Plant response rating, Foxtail, Giant ([11]; 125 g ai/ha): 10
- Plant response rating, Foxtail, Giant [11, 18]: 0
- Plant response rating, Pigweed ([12]; 125 g ai/ha): 60
- Plant response rating, Pigweed [12, 18]: 80
- Plant response rating, Wheat ([13]; 125 g ai/ha): 20
- Plant response rating, Wheat [13, 18]: 60
- Plant response rating, Corn ([14]; 125 g ai/ha): 0
- Plant response rating, Corn [14, 18]: 20
- Plant response rating, Blackgrass ([15]; 125 g ai/ha): 0
- Plant response rating, Blackgrass [15, 18]: 0
- Plant response rating, Galium ([16]; 125 g ai/ha): 60
- Plant response rating, Galium [16, 18]: 80

Structure (SMILES): COc1cc(Cl)c(NS(=O)(=O)C(F)(F)F)cc1C(=O)N1CCOCC1 [Compound 258]
- Plant response rating, Barnyardgrass ([1]; 1000 g ai/ha): 80
- Plant response rating, Kochia ([2]; 1000 g ai/ha): 90
- Plant response rating, Ragweed ([3]; 1000 g ai/ha): 90
- Plant response rating, Ryegrass, Italian ([4]; 1000 g ai/ha): 70
- Plant response rating, Foxtail, Giant ([5]; 1000 g ai/ha): 90
- Plant response rating, Pigweed ([6]; 1000 g ai/ha): 100
- Plant response rating, Barnyardgrass [7, 19]: 70
- Plant response rating, Kochia [8, 19]: 90
- Plant response rating, Ragweed [9, 19]: 80
- Plant response rating, Ryegrass, Italian [10, 19]: 70
- Plant response rating, Foxtail, Giant [11, 19]: 50
- Plant response rating, Pigweed [12, 19]: 80
- Plant response rating, Wheat [13, 19]: 30
- Plant response rating, Corn [14, 19]: 10
- Plant response rating, Blackgrass [15, 19]: 50
- Plant response rating, Galium [16, 19]: 80

Structure (SMILES): Cc1ccc(C(=O)N2CCCCC2)cc1NS(=O)(=O)C(F)(F)F [Compound 259]
- Plant response rating, Barnyardgrass ([1]; 1000 g ai/ha): 90
- Plant response rating, Kochia ([2]; 1000 g ai/ha): 40
- Plant response rating, Ragweed ([3]; 1000 g ai/ha): 70
- Plant response rating, Ryegrass, Italian ([4]; 1000 g ai/ha): 80
- Plant response rating, Foxtail, Giant ([5]; 1000 g ai/ha): 90
- Plant response rating, Pigweed ([6]; 1000 g ai/ha): 80
- Plant response rating, Barnyardgrass [7, 19]: 0
- Plant response rating, Kochia [8, 19]: 40
- Plant response rating, Ragweed [9, 19]: 10
- Plant response rating, Ryegrass, Italian [10, 19]: 10
- Plant response rating, Foxtail, Giant [11, 19]: 0
- Plant response rating, Pigweed [12, 19]: 40
- Plant response rating, Wheat [13, 19]: 0
- Plant response rating, Corn [14, 19]: 10
- Plant response rating, Blackgrass [15, 19]: 50
- Plant response rating, Galium [16, 19]: 60

Structure (SMILES): Cc1cc(C)c(C(=O)N2CCC(C(C)(C)C)CC2)cc1NS(=O)(=O)C(F)(F)F [Compound 261]
- Plant response rating, Barnyardgrass ([1]; 1000 g ai/ha): 60
- Plant response rating, Kochia ([2]; 1000 g ai/ha): 0
- Plant response rating, Ragweed ([3]; 1000 g ai/ha): 0
- Plant response rating, Ryegrass, Italian ([4]; 1000 g ai/ha): 60
- Plant response rating, Foxtail, Giant ([5]; 1000 g ai/ha): 90
- Plant response rating, Pigweed ([6]; 1000 g ai/ha): 20
- Plant response rating, Barnyardgrass [7, 19]: 0
- Plant response rating, Kochia [8, 19]: 0
- Plant response rating, Ragweed [9, 19]: 0
- Plant response rating, Ryegrass, Italian [10, 19]: 20
- Plant response rating, Foxtail, Giant [11, 19]: 0
- Plant response rating, Pigweed [12, 19]: 30
- Plant response rating, Wheat [13, 19]: 0
- Plant response rating, Corn [14, 19]: 10
- Plant response rating, Blackgrass [15, 19]: 0
- Plant response rating, Galium [16, 19]: 50

Structure (SMILES): Cc1ccc(C(=O)N2CCC(C(C)(C)C)CC2)cc1NS(=O)(=O)C(F)(F)F [Compound 262]
- Plant response rating, Barnyardgrass ([1]; 1000 g ai/ha): 20
- Plant response rating, Kochia ([2]; 1000 g ai/ha): 0
- Plant response rating, Ragweed ([3]; 1000 g ai/ha): 0
- Plant response rating, Ryegrass, Italian ([4]; 1000 g ai/ha): 20
- Plant response rating, Foxtail, Giant ([5]; 1000 g ai/ha): 70
- Plant response rating, Pigweed ([6]; 1000 g ai/ha): 0
- Plant response rating, Barnyardgrass [7, 19]: 0
- Plant response rating, Kochia [8, 19]: 0
- Plant response rating, Ragweed [9, 19]: 0
- Plant response rating, Ryegrass, Italian [10, 19]: 20
- Plant response rating, Foxtail, Giant [11, 19]: 0
- Plant response rating, Pigweed [12, 19]: 20
- Plant response rating, Wheat [13, 19]: 0
- Plant response rating, Corn [14, 19]: 0
- Plant response rating, Blackgrass [15, 19]: 20
- Plant response rating, Galium [16, 19]: 40

Structure (SMILES): Cc1cc(C)c(C(=O)N2CCC(C)CC2)cc1NS(=O)(=O)C(F)(F)F [Compound 264]
- Plant response rating, Barnyardgrass ([1]; 1000 g ai/ha): 100
- Plant response rating, Kochia ([2]; 1000 g ai/ha): 70
- Plant response rating, Ragweed ([3]; 1000 g ai/ha): 90
- Plant response rating, Ryegrass, Italian ([4]; 1000 g ai/ha): 100
- Plant response rating, Foxtail, Giant ([5]; 1000 g ai/ha): 100
- Plant response rating, Pigweed ([6]; 1000 g ai/ha): 80
- Plant response rating, Barnyardgrass [7, 19]: 50
- Plant response rating, Kochia [8, 19]: 20
- Plant response rating, Ragweed [9, 19]: 60
- Plant response rating, Ryegrass, Italian [10, 19]: 50
- Plant response rating, Foxtail, Giant [11, 19]: 40
- Plant response rating, Pigweed [12, 19]: 60
- Plant response rating, Wheat [13, 19]: 70
- Plant response rating, Corn [14, 19]: 20
- Plant response rating, Blackgrass [15, 19]: 60
- Plant response rating, Galium [16, 19]: 70

Structure (SMILES): Cc1cc(C)c(N2CCC3(CCCC3)C2=O)cc1NS(=O)(=O)C(F)(F)F [Compound 270]
- Plant response rating, Barnyardgrass [1, 17]: 90
- Barnyardgrass plant response rating [1]: 90
- Plant response rating, Kochia [2, 17]: 0
- Kochia plant response rating [2]: 0
- Plant response rating, Ragweed [3, 17]: 0
- Ragweed plant response rating [3]: 80
- Plant response rating, Ryegrass, Italian [4, 17]: 100
- Ryegrass, Italian plant response rating [4]: 100
- Plant response rating, Foxtail, Giant [5, 17]: 100
- Foxtail, Giant plant response rating [5]: 100
- Plant response rating, Pigweed [6, 17]: 70
- Pigweed plant response rating [6]: 100
- Plant response rating, Barnyardgrass ([7]; 125 g ai/ha): 0
- Plant response rating, Barnyardgrass [7, 18]: 70
- Plant response rating, Kochia ([8]; 125 g ai/ha): 10
- Plant response rating, Kochia [8, 18]: 50
- Plant response rating, Ragweed ([9]; 125 g ai/ha): 30
- Plant response rating, Ragweed [9, 18]: 60
- Plant response rating, Ryegrass, Italian ([10]; 125 g ai/ha): 0
- Plant response rating, Ryegrass, Italian [10, 18]: 70
- Plant response rating, Foxtail, Giant ([11]; 125 g ai/ha): 0
- Plant response rating, Foxtail, Giant [11, 18]: 20
- Plant response rating, Pigweed ([12]; 125 g ai/ha): 60
- Plant response rating, Pigweed [12, 18]: 90
- Plant response rating, Wheat ([13]; 125 g ai/ha): 40
- Plant response rating, Wheat [13, 18]: 70
- Plant response rating, Corn ([14]; 125 g ai/ha): 0
- Plant response rating, Corn [14, 18]: 50
- Plant response rating, Blackgrass ([15]; 125 g ai/ha): 20
- Plant response rating, Blackgrass [15, 18]: 70
- Plant response rating, Galium ([16]; 125 g ai/ha): 80
- Plant response rating, Galium [16, 18]: 90
